# Results from patent publication US8835476B2, “Synthesis of novel antimicrobials” (priority 2005, dated 2014).
# Target: T1, recombinant E. coli LpxA (Escherichia coli, UniProt P0A722)
# T1 construct: 6xHis (C); made in house; host or cells: E. coli BL21 (pET23b)
# Assay: LpxA assay: acyl-UDP-GlcNAc formation from UDP-[3H]GlcNAc, TLC
# Type: biochemical
# Conditions: 5 mM compound; FIG. 8
# Source text: The lpxA gene was amplified from an E. coli genomic library and inserted into a pET23b vector using standard recombinant DNA methodology. The 5′ oligonucleotide for amplification of the LpxA open reading frame was 5′-[…]-3′ (SEQ ID NO. 1) and contains a BamHI restriction enzyme site upstream of the LpxA ATG start codon and the 3′ oligonucleotide was 5′-[…]-3′ (SEQ ID NO. 2) and contains a XhoI restriction enzyme site downstream of the final codon of the LpxA open reading frame. Primers were custom synthesized. The primers were designed such that digestion of the amplification product would result in addition of a C-terminal 6×-His tag in frame with the LpxA open reading frame. Specifically, E. coli genomic DNA was isolated and an amplification reaction was carried out as follows: 33 μl water, 5 μl 10× reaction buffer, 1.5 μl of 50 mM magnesium sulfate, 3 μl of 10 mM dNTPs, 3 μl of a 50 μM solution of the 5′ LpxA primer, 3 μl of a 50 μM solution of the 3′ LpxA primer, 0.5 μl of E. coli genomic DNA solution, and 1 μl of polymerase. The reaction conditions were as follows: 94° C. for 2 minutes; followed by 30 cycles of 94° C. for 30 seconds, 50° C. for 30 seconds, 68° C. for 1.5 minutes, followed by an extension at 68° C. for 7 minutes. The resulting LpxA product was separated from other DNA on a 0.8% agarose gel and isolated from the gel. The LpxA open reading frame was cloned into a topoisomerase I-activated vector and transformed into E. coli. […] The newly synthesized plasmid containing the BamHI- and XhoI-flanked LpxA open reading frame and plasmid pET23a were digested with BamHI and XhoI at 37° C. for 2 hours, DNA was separated by agarose gel electrophoresis, isolated from the gel, and ligated. Ligation reactions were transformed into chemically competent E. coli and plasmid DNA was isolated. Restriction mapping was performed to determine which plasmids contained the LpxA open reading frame. To remove the T7 epitope coding sequence from the 5′end of the LpxA open reading frame, the pET23a plasmid containing the LpxA open reading frame was digested with the restriction enzymes BamHI and XhoI and a pET23b plasmid was digested with BglII and XhoI, DNA was separated by agarose gel electrophoresis, isolated from the gel, and ligated. Ligation reactions were transformed into chemically competent E. coli and plasmid DNA was isolated. Restriction mapping was performed to assess plasmids containing the LpxA open reading frame.
# A 5 ml culture of E. Coli BL21 cells expressing the LpxA-6×His plasmid was grown overnight at 37° C. in LB medium containing 50 μg/ml ampicillin and 34 μg/ml chloramphenicol, then subcultured into 500 ml of the same medium and grown at 37° C. until A600=0.6. LpxA expression was induced by addition of 0.5 mM IPTG for three hours. The cells were centrifuged at 7 000×g for 10 minutes at 4° C. and lysed using a mild, nonionic detergent. The soluble fraction containing LpxA was added to 1 ml of nickel affinity resin in a 15 ml Falcon tube; the resin was washed extensively with extraction/wash buffer (50 mM Na-phosphate (pH 7.0) and 300 mM NaCl) prior to use. This mixture was incubated on a rotating platform at low speed for 20 minutes at room temperature. The resin was centrifuged at 1000 rpm in a bench top centrifuge for 2 min, washed twice (10 min each) with 10 ml of extraction/wash buffer, resuspended in 10 ml of extraction/wash buffer, and transferred to a 10 ml polypropylene disposable protein purification column. The column was eluted with 5 ml of 50 mM Na-phosphate (pH 7.0) containing 300 mM NaCl and 150 mM imidazole, collected in 1 ml fractions. The eluate was analysed by SDS-PAGE and was visualised using a protein stain (FIG. 7 inset).
# Recombinant Vibrio harveyi acyl carrier protein was prepared from a GST fusion protein as described previously (Flaman et al., 2001). […]
# T1 sequence (P0A722 whole entry): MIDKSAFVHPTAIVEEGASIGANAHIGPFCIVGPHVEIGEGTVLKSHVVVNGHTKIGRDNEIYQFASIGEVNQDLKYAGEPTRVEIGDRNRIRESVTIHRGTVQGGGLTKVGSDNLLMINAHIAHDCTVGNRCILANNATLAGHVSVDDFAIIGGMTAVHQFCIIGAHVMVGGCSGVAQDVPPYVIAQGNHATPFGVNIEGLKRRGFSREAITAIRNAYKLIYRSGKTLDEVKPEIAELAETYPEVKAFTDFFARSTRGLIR
row,SMILES,inhibition at 5000 µM
1,"O=C(O)c1cc(-c2nnn[nH]2)c(-c2cccc3ccccc23)s1 [DNM-121H, 5-(Naphthalen-1-yl)-4-(1H-tetrazol-5-yl)thiophene-2-carboxylic acid]",> 70%
2,"COc1cccc(-c2sc(C(=O)O)cc2-c2nnnn2C)c1 [DNM-122D, 5-(3-Methoxyphenyl)-4-(1-methyl-1H-tetrazol-5-yl)thiophene-2-carboxylic acid]",> 70%
3,"Cn1nnnc1-c1cc(C(=O)O)sc1-c1ccc(-c2ccccc2)cc1 [DNM-122G, 5-(4-biphenylyl)-4-(1-methyl-1H-tetrazol-5-yl)thiophene-2-carboxylic acid]",> 80%
4,"Cn1nnnc1-c1cc(C(=O)O)sc1-c1cccc2ccccc12 [DNM-122H, 5-(Naphthalen-1-yl)-4-(1-methyl-1H-tetrazol-5-yl)thiophene-2-carboxylic acid]",> 80%
5,"Cn1nnc(-c2cc(C(=O)O)sc2-c2cccc(F)c2)n1 [DNM-123A, 5-(3-Fluorophenyl)-4-(2-methyl-2H-tetrazol-5-yl)thiophene-2-carboxylic acid]",> 70%
6,"COc1cccc(-c2sc(C(=O)O)cc2-c2nnn(C)n2)c1 [DNM-123D, 5-(3-Methoxyphenyl)-4-(2-methyl-2H-tetrazol-5-yl)thiophene-2-carboxylic acid]",> 80%
7,"COc1ccc(-c2sc(C(=O)O)cc2-c2nnn(C)n2)cc1 [DNM-123E, 5-(4-Methoxyphenyl)-4-(2-methyl-2H-tetrazol-5-yl)thiophene-2-carboxylic acid]",> 70%
8,"COc1ccccc1-c1sc(C(=O)O)cc1-c1nnn(C)n1 [DNM-123F, 5-(2-Methoxyphenyl)-4-(2-Methyl-2H-tetrazol-5-yl)thiophene-2-carboxylic acid]",> 80%
9,"Cn1nnc(-c2cc(C(=O)O)sc2-c2ccc(-c3ccccc3)cc2)n1 [DNM-123G, 5-(4-biphenylyl)-4-(2-methyl-2H-tetrazol-5-yl)thiophene-2-carboxylic acid]",> 80%
10,"Cn1nnc(-c2cc(C(=O)O)sc2-c2cccc3ccccc23)n1 [DNM-123H, 5-(Naphthalen-1-yl)-4-(2-methyl-2H-tetrazol-5-yl)thiophene-2-carboxylic acid]",> 80%
11,"Cn1nnc(-c2cc(C(=O)O)sc2-c2ccccn2)n1 [DNM-123I, 5-(Pyridin-2-yl)-4-(2-methyl-2H-tetrazol-5-yl)thiophene-2-carboxylic acid]",> 70%
12,"CCOC(=O)c1cc(-c2nnn[nH]2)c(-c2cccc(F)c2)s1 [DNM-124A, Ethyl 5-(3-fluorophenyl)-4-(1H-tetrazol-5-yl)thiophene-2-carboxylate]",> 80%
13,"CCOC(=O)c1cc(-c2nnn[nH]2)c(-c2ccccn2)s1 [DNM-124I, Ethyl 5-(pyridin-2-yl)-4-(1H-tetrazol-5-yl)thiophene-2-carboxylate]",> 80%
14,"Oc1cccc(-c2cc(-c3nnn[nH]3)c(-c3cccc(O)c3)s2)c1 [DNM-131A, 5-(2,5-Bis(3-hydroxyphenyl)thiophen-3-yl)-1H-tetrazole]",> 80%
15,"Oc1ccc(-c2cc(-c3nnn[nH]3)c(-c3ccc(O)cc3)s2)cc1 [DNM-131C, 5-(2,5-Bis(4-hydroxyphenyl)thiophen-3-yl)-1H-tetrazole]",> 80%
16,"O=C(O)c1ccc(-c2cc(-c3nnn[nH]3)c(-c3ccc(C(=O)O)cc3)s2)cc1 [DNM-131E, 5-(2,5-Bis(4-carboxyphenyl)thiophen-3-yl)-1H-tetrazole]",> 80%
17,"NC(=O)c1ccc(-c2cc(-c3nnn[nH]3)c(-c3ccc(C(N)=O)cc3)s2)cc1 [DNM-131F, 5-(2,5-Bis(4-carbamoylphenyl)thiophen-3-yl)-1H-tetrazole]",> 80%
18,"NC(=O)c1cccc(-c2cc(-c3nnn[nH]3)c(-c3cccc(C(N)=O)c3)s2)c1 [DNM-131H, 5-(2,5-Bis(3-carbamoylphenyl)thiophen-3-yl)-1H-tetrazole]",> 70%
19,"CCOC(=O)c1ccc(-c2cc(-c3nnn[nH]3)c(-c3ccc(C(=O)OCC)cc3)s2)cc1 [DNM-131J, 5-(2,5-Bis(4-(ethoxylcarbonyl)phenyl)thiophen-3-yl)-1H-tetrazole]",> 80%
20,"COC(=O)c1ccccc1-c1cc(-c2nnn[nH]2)c(-c2ccccc2C(=O)OC)s1 [DNM-131K, 5-(2,5-Bis(2-(methoxylcarbonyl)phenyl)thiophen-3-yl)-1H-tetrazole]",> 70%
21,"c1ccc(Cc2cc(-c3nnn[nH]3)c(Cc3ccccc3)s2)cc1 [DNM-131O, 5-(2,5-Dibenzylthiophen-3-yl)-1H-tetrazole]",> 80%
22,"Cn1nnc(-c2cc(-c3cccc(O)c3)sc2-c2cccc(O)c2)n1 [DNM-132A, 5-(2,5-Bis(3-hydroxyphenyl)thiophen-3-yl)-2-methyl-2H-tetrazole]",> 80%
23,"Cn1nnc(-c2cc(-c3ccc(O)cc3)sc2-c2ccc(O)cc2)n1 [DNM-132C, 5-(2,5-Bis(4-hydroxyphenyl)thiophen-3-yl)-2-methyl-2H-tetrazole]",> 80%
24,"Cn1nnc(-c2cc(-c3cccc(C(=O)O)c3)sc2-c2cccc(C(=O)O)c2)n1 [DNM-132G, 5-(2,5-Bis(3-carboxyphenyl)thiophen-3-yl)-2-methyl-2H-tetrazole]",> 80%
25,"Cn1nnnc1-c1cc(-c2cccc(O)c2)sc1-c1cccc(O)c1 [DNM-133A, 5-(2,5-Bis(3-hydroxyphenyl)thiophen-3-yl)-1-methyl-1H-tetrazole]",> 80%
26,"Cn1nnnc1-c1cc(-c2ccc(O)cc2)sc1-c1ccc(O)cc1 [DNM-133C, 5-(2,5-Bis(4-hydroxyphenyl)thiophen-3-yl)-1-methyl-1H-tetrazole]",> 80%
27,"Cn1nnnc1-c1cc(-c2ccc(C(=O)O)cc2)sc1-c1ccc(C(=O)O)cc1 [DNM-133E, 5-(2,5-Bis(4-carboxyphenyl)thiophen-3-yl)-1-methyl-1H-tetrazole]",> 70%
